Laboratory results as given in ChEMBL document CHEMBL2034821, “Synthesis, hypoglycemic and hypolipidemic activities of novel thiazolidinedione derivatives containing thiazole/triazole/oxadiazole ring” (Eur J Med Chem, 2012).

What was measured:
Rattus norvegicus [1] = experiment: Hypoglycemic activity in alloxan-induced diabetic Wistar rat model assessed as reduction in plasma glucose level at 3 mg/kg, po for 15 days measured on day 15; format: functional; design: scale not given: the % may be the effect or the level left
Rattus norvegicus [2] = experiment: Hypoglycemic activity in alloxan-induced diabetic Wistar rat model assessed as reduction in plasma glucose level at 10 mg/kg, po for 15 days measured on day 15; format: functional; design: scale not given: the % may be the effect or the level left
Rattus norvegicus [3] = experiment: Hypoglycemic activity in alloxan-induced diabetic Wistar rat model assessed as reduction in plasma glucose level at 30 mg/kg, po for 15 days measured on day 15; format: functional; design: scale not given: the % may be the effect or the level left
Rattus norvegicus [4] = experiment: Hypoglycemic activity in alloxan-induced diabetic Wistar rat model assessed as reduction in plasma glucose level at 100 mg/kg, po for 15 days measured on day 15; format: functional; design: scale not given: the % may be the effect or the level left
Rattus norvegicus [5] = experiment: Hypolipidemic activity in alloxan-induced diabetic Wistar rat model assessed as reduction in triglyceride level at 3 mg/kg, po for 15 days measured on day 15; format: functional; design: scale not given: the % may be the effect or the level left
Rattus norvegicus [6] = experiment: Hypolipidemic activity in alloxan-induced diabetic Wistar rat model assessed as reduction in triglyceride level at 10 mg/kg, po for 15 days measured on day 15; format: functional; design: scale not given: the % may be the effect or the level left
Rattus norvegicus [7] = experiment: Hypolipidemic activity in alloxan-induced diabetic Wistar rat model assessed as reduction in triglyceride level at 30 mg/kg, po for 15 days measured on day 15; format: functional; design: scale not given: the % may be the effect or the level left
Rattus norvegicus [8] = experiment: Hypolipidemic activity in alloxan-induced diabetic Wistar rat model assessed as reduction in triglyceride level at 100 mg/kg, po for 15 days measured on day 15; format: functional; design: scale not given: the % may be the effect or the level left
Rattus norvegicus [9] = experiment: Toxicity in Wistar rat at 3 to 100 mg/kg, po for 15 days; format: organism-based; design: dose 3-100 mg/kg, route oral; settings: in vivo, 360 h

SMILES | Activity (Rattus norvegicus [1]) | Activity (Rattus norvegicus [2]) | Activity (Rattus norvegicus [3]) | Activity (Rattus norvegicus [4]) | Activity (Rattus norvegicus [5]) | Activity (Rattus norvegicus [6]) | Activity (Rattus norvegicus [7]) | Activity (Rattus norvegicus [8]) | Activity (Rattus norvegicus [9])
Cc1nc(COc2ccc(/C=C3\SC(=O)NC3=O)cc2)cs1 | 10.42% | 10.64% | 14.73% | 22.87% | 18.62% | 19.2% | 26.4% | 38.92% | Non-toxic
O=C1NC(=O)/C(=C/c2ccc(OCc3csc(-c4ccccc4)n3)cc2)S1 | 17.75% | 20.36% | 22.64% | 29.73% | 25.24% | 21.69% | 40.26% | 53.96% | Non-toxic
O=C1NC(=O)/C(=C/c2ccc(OCCSc3nnc(-c4ccccc4)[nH]3)cc2)S1 | 10.42% | 10.64% | 14.73% | 22.87% | 18.62% | 19.2% | 26.4% | 38.92% | Non-toxic
O=C1NC(=O)/C(=C/c2ccc(OCCSc3nnc(Cc4ccccc4)[nH]3)cc2)S1 | 18.28% | 19.36% | 28.54% | 34.38% | 22.45% | 22.81% | 38.25% | 41.87% | Non-toxic
Cc1ccc(-c2nnc(SCCOc3ccc(/C=C4\SC(=O)NC4=O)cc3)[nH]2)cc1 | 16.87% | 20.36% | 22.64% | 29.73% | 25.24% | 21.69% | 40.26% | 53.96% | Non-toxic
O=C1NC(=O)/C(=C/c2ccc(OCCSc3nnc(-c4ccc([N+](=O)[O-])cc4)[nH]3)cc2)S1 | 11.92% | 13.85% | 16.02% | 18.04% | 14.12% | 15.32% | 18.56% | 22.08% | Non-toxic
O=C1NC(=O)/C(=C/c2ccc(OCCSc3nnc(-c4ccccc4[N+](=O)[O-])[nH]3)cc2)S1 | 14.58% | 15.28% | 20.14% | 26.84% | 19.84% | 20.91% | 38.64% | 49.12% | Non-toxic
O=C1NC(=O)/C(=C/c2ccc(OCCSc3nnc(-c4ccc(Cl)cc4)[nH]3)cc2)S1 | 16.04% | 19.63% | 23.68% | 28.85% | 23.85% | 24.56% | 32.92% | 41.56% | Non-toxic
O=C1NC(=O)/C(=C/c2ccc(OCCSc3nnc(-c4ccc(Br)cc4)[nH]3)cc2)S1 | 13.15% | 20.43% | 19.52% | 28.51% | 28.35% | 26.87% | 39.45% | 45.68% | Non-toxic
COc1ccc(-c2nnc(SCCOc3ccc(/C=C4\SC(=O)NC4=O)cc3)[nH]2)cc1 | 41.28% | 33.62% | 40.04% | 43.42% | 43.14% | 42.63% | 59.46% | 71.24% | Non-toxic
O=C1NC(=O)/C(=C/c2ccc(OCCSc3nnc(-c4ccccc4)o3)cc2)S1 | 11.62% | 14.64% | 16.13% | 20.08% | 21.56% | 22.18% | 24.05% | 33.12% | Non-toxic
O=C1NC(=O)/C(=C/c2ccc(OCCSc3nnc(Cc4ccccc4)o3)cc2)S1 | 14.23% | 16.82% | 19.08% | 23.08% | 18.52% | 20.54% | 28.02% | 34.56% | Non-toxic
O=C1NC(=O)/C(=C/c2ccc(OCCSc3nnc(-c4cccnc4)o3)cc2)S1 | 24.35% | 33.16% | 39.34% | 50.09% | 40.66% | 45.1% | 60.78% | 72.32% | Non-toxic
O=C1NC(=O)/C(=C/c2ccc(OCCSc3nnc(-c4ccncc4)o3)cc2)S1 | 23.46% | 32.62% | 40% | 43.42% | 40.15% | 42.17% | 58.48% | 69.72% | Non-toxic
CCc1ccc(CCOc2ccc(CC3SC(=O)NC3=O)cc2)nc1 (centres undefined) [PIOGLITAZONE] | 47.02% | 35.25% | 40.96% | 45.89% | 41.6% | 47.25% | 64.59% | 75.43% | 
